Experimental data reported in US11052154B2, “Ras protein degradation inducing molecule and pharmaceutical composition” (Tokyo University of Science Foundation, priority 2016, dated 2021).

Columns and labels:
[1] = test system: SW1990 cells; experiment: Apoptosis induction in SW1990 cells, FACS analysis (Annexin V/PI); assay type: cell-based, human; conditions: SW1990 cells expressing G12D mutant K-Ras, 24 hours after addition; FIGS. 6B, 7B
Method: In Example 7, apoptosis induction in a case where TUS-007, Ras-SOS, or Ras-SOS-NH2 was added to HeLa cells or SW1990 cells (human pancreatic cancer cells) had been added was evaluated by the FACS analysis. It is noted that in HeLa cells, the wild-type K-Ras protein (K-Ras-WT) is expressed, and in SW1990 cells, the G12D mutant K-Ras protein (K-Ras-G12D) is expressed.
HeLa cells or SW1990 cells were seeded in a 24-well plate at a cell density of 8×10^4 cells/well, and then cultured under conditions of 37° C. and 5 vol % CO2 for 16 hours.
After 16 hours from cell seeding, TUS-007, Ras-SOS, or Ras-SOS-NH2 were added to HeLa cells or SW1990 cells as follows. As a medium, a serum-free medium (37° C.) in which 1 mass % L-glutamine solution (Sigma-Aldrich) was added to D-MEM (high D-glucose, phenol red, sodium pyruvate (Wako Pure Chemical Industries, Ltd.)) was used. It is noted that the L-glutamine solution was added immediately before use. A DMSO solution containing TUS-007, Ras-SOS, or Ras-SOS-NH2 was mixed with the medium so that the concentration of DMSO was 1 vol %, and added to each well at 500 μL/well, and cultured under conditions of 37° C. and 5 vol % CO2. As a control, DMSO was used.
The medium was removed 24 hours after addition of TUS-007, Ras-SOS, or Ras-SOS-NH2, and then PBS was added to wash the cells. After removing PBS, trypsin (0.25 w/v % trypsin-1 mmol/L EDTA⋅4 Na solution with phenol red) (Wako Pure Chemical Industries, Ltd.) at 37° C. was added to each well at 200 μL/well, and cultured under conditions of 37° C. and 5 vol % CO2 for 1 minute. […]
A BD FACSCanto™ II (BD Biosciences) was used for flow cytometry. […] The proportion of Annexin V-positive and PI-negative cells was calculated using an analysis software FlowJo™ (TOMY Digital Biology Co., Ltd.), and the proportion was defined as a proportion of apoptosis cells.
In Example 8, apoptosis induction in a case where TUS-007, Ras-SOS-NH2, or erlotinib as an anticancer agent (EGFR inhibitor) was added to HeLa cells or SW1990 cells was evaluated by FACS analysis as in Example 7.

[2] = molecular target: T1, endogenous wild-type K-Ras protein (Mus musculus, UniProt P32883); experiment: Degradation of endogenous wild-type K-Ras protein in mouse pancreas and colorectal tissue, Western blot analysis; assay type: in vivo; conditions: C57BL/6J mice, intraperitoneal, 48 hours, FIG. 8
T1 construct: an endogenous wild-type K-Ras protein and wild-type H-Ras protein; from tissue; host or cells: mouse pancreas and colon
Method: In Example 9, in a mouse individual to which TUS-007 had been administered, the degradation (knockdown) of an endogenous wild-type K-Ras protein and wild-type H-Ras protein was evaluated by Western blot analysis.
TUS-007 was dissolved in DMSO, and then dissolved in corn oil so that the concentration of DMSO was 10 vol %, and then intraperitoneally administered to C57BL/6J wild-type mice (8 to 9 weeks old, male) (CLEA Japan, Inc.) in an amount of 40 mg/kg body weight or 80 mg/kg body weight (n=3 to 4). Furthermore, in addition to a group in which TUS-007 was administered, a group in which Ras-SOS had been administered in a dose of 80 mg/kg body weight was prepared. As a control, an injection carrier (corn oil containing 10 vol % DMSO) was used. The mice were kept under an environment of ad libitum access to food and water. The mice were dissected under deep anesthesia 48 hours after administration. The pancreas and colon were excised, and flash frozen in liquid nitrogen.
The frozen pancreas and colon were each triturated, and then TKM tissue lysis buffer (50 mM triethanolamine (pH 7.8), 50 mM KCl, 5 mM MgCl2, 0.25 M sucrose, 1 mM PMSF, Protein Inhibitors Cocktail-EDTA free (Nacalai Tesque, Inc.), 1 mM DTT, and a recombinant RNase inhibitor (0.2 U/μL, Takara Bio) were added, and subjected to centrifugation (at 13800 rpm×30 minutes, 4° C.), and the supernatants (pancreatic tissue extract and colorectal tissue extract) were collected. The concentration of the extracted proteins was quantified with a spectrophotometer.
Each tissue extract collected was subjected to Western blot analysis. […]
After electrophoresis, proteins were transferred to a PVDF membrane (Immobion™-P, Millipore) under conditions of 200 mA and 90 minutes using a tank-type blotting device and a transfer buffer (25 mM Tris-HCl, 195 mM glycine, 0.01% SDS, 15% methanol). […] Subsequently, the membrane was treated with a chemiluminescence reagent Immobilon™ Western (Millipore), and then chemiluminescence was detected using a lumino image analyzer LAS-3000 (FUJIFILM Corporation).

T1 sequence (P32883 whole entry): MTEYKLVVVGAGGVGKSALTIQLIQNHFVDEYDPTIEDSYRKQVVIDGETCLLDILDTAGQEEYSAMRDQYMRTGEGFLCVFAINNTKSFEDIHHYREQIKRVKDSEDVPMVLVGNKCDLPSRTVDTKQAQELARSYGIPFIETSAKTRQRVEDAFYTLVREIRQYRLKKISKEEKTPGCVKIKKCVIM

With `CCC(C)[C@H](NC(=O)CCCCCCNC(=O)[C@H](CC(C)C)NC(=O)CNC(=O)c1cc(Cl)ccc1Cl)C(=O)Nc1ccc2[nH]c(Cc3c[nH]c4ccccc34)nc2c1` (stereo in doubt) [TUS-007] the “apoptosis induction (proportion of Annexin V-positive and PI-negative cells)” value [1] was “the effect of the apoptosis by TUS-007 was high at the same level as in the case of the HeLa cells”, the “amount of the endogenous wild-type K-Ras protein in the pancreatic tissue (Western blot)” value ([2]; 40 or 80 mg/kg, pancreatic tissue) was “remarkably reduced in the pancreatic tissue” and the “amount of the endogenous wild-type K-Ras protein in mouse tissues (Western blot)” value ([2]; TUS-007 40 or 80 mg/kg, Ras-SOS 80 mg/kg, pancreas and colon) was “reduced in a concentration-dependent manner”.
